Assay results published in patent publication US20030143559A1, “Novel estrogen receptor ligand binding domain variants and novel ligands and pharmaceutical compositions” (priority 2001, published 2003).
Where a chain is given by its changes, count along the chain named.

Legend:
[1] = BIV lentiviral reporter vector without activator, eGFP expression by FACS in 293T cells; assay type: cell-based; details: reporter BIVC2H2FOSEGFP, activator none; 100 nM, forty-eight hours
From the text: One of the reporter constructs described above was introduced individually into 3×10^6 293T cells along with other components of the BIV four component packaging system (U.S. patent application of Luo et al. filed Feb. 4, 2002 entitled “Recombinant Bovine Immunodeficiency Virus Based Gene Transfer System” (Atty Docket No. 2048-127; serial number to be assigned) and Matukonis et al., (“Development of Second and Third Generation of Bovine Immunodeficiency Virus Based Gene Transfer Systems” Human Gene Therapy, in press (2002)) by CaPO4-mediated transient transfection. Eighteen hours post transfection, media were replaced with fresh DMEM containing 10% FBS and 200 mM butyric acid. Forty-eight hours later, conditioned media were collected from the transfected cells. Two mls of conditioned media from each transfection plus 2 mls of DMEM/FBS were added to 2×10^5 293T cells in individual wells of a six well tissue culture plate. In addition, 2 mls of conditioned media from either the pBIVC2H2FOSeGFP transfections were combined with 2 mls of conditioned media from the pBIVMNDC7 or pBIVMND2AS transfections and added to 2×10^5 293T cells. 8 μg/ml protamine sulfate were added to each transduction reaction. Four hours later, conditioned media was removed from the transduced cells and replaced with fresh DMEM/FBS. […]

ER-LBD H524G = target: T1, ER-LBD H524G (Homo sapiens, UniProt P03372, H524G); assay: ER-LBD H524G transactivation, cell-based reporter gene assay
T1 construct: expressed in transfected cells
T1 sequence (P03372 311-547 H524G limits assumed): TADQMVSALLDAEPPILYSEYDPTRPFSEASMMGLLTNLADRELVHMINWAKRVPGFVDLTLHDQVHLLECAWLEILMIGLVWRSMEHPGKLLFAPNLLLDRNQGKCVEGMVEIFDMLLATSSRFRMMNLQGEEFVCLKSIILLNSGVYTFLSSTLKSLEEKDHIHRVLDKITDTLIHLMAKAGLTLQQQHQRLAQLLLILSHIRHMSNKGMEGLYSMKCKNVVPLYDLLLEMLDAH
Protocol: (§1) In order to evaluate the ability of the fusion proteins C7LBD A, B, and the related LBD mutants to regulate transgene expression, a standard co-transfection reporter assay was performed. A reporter construct, henceforth known as 6×2C7pGL3Luc, containing six copies of a directly repeated C7 binding site (6×2C7) inserted upstream of an SV40 promoter fragment and reporter gene encoding firefly luciferase (pGL3Pro; Promega) was transfected along with the designated fusion protein and assayed as described below. Note the consensus C7 binding site is 5′-GCG TGG GCG-3′.
(§2) Cultured cells (HeLa, Cos, Hep3B or other) were seeded at 5×10^4 cells/well in a 24 well plate prior to the day of transfection in DMEM Phenol-free media, supplemented with L-glutamine and 5% (v/v) charcoal-dextran stripped Fetal Bovine serum (sFBS). Cells were transfected using the Qiagen Superfect Transfection method. For each well 1 μg of total DNA, containing 0.5 μg luciferase reporter plasmid (6×2C7pGL3Luc), 0.1 μg of chimeric activator DNA (e.g., C7LBDA, C7LBDB, or mutants thereof ), and 0.4 μg of an inert carrier plasmid DNA (p3Kpn), was mixed with 60 μL of DMEM phenol-free/serum free media, and 5 μL of Superfect reagent. In general, about 10 ng to about 0.5 μg of chimeric activator DNA was used for each well.
The mixture was vortexed for 10 seconds and incubated at room temperature for 10 minutes, followed by the addition of 350 μL of DMEM phenol-free 5% sFBS media. Cells were washed once with Dulbecco's phosphate buffered saline (DPBS) and the transfection mixture placed on the cells. Cells were washed once with DPBS following a 2.5 hour incubation at 37 degrees Celsius, and re-fed with DMEM Phenol-free 5% sFBS media.
Cells were treated 24 hours later by washing once with DPBS and adding 200 μL 1X reporter lysis buffer (Promega). Plates were frozen at -80° C. and on the day of assay thawed at room temperature for 1.5 hours on an orbital shaker at 100 RPM. After allowing for cellular debris to settle, lysate was transferred to a new tube, diluted 1:10 with 1X reporter lysis buffer and 10 μL transferred to 96 well opaque plates.
The sequence of the oligonucleotides used for the H524G modification were […] […] Mutated plasmids were isolated and their sequence confirmed.

H524A mutant = target: T2, H524A mutant (Homo sapiens, UniProt P03372, H524A); assay: H524A mutant activation, cell-based reporter gene assay; details: 10 nM ligand
T2 construct: plasmids encoding the fusion proteins ER-LBD-C7LBDa and C7LBDb to substitute either alanine or glycine for histidine at residue 524; expressed in transfected cells
T2 sequence (P03372 311-547 H524A limits assumed): T1 sequence (P03372 311-547 H524G limits assumed) with G214A
Protocol: as §1
as §2, with “well. […]” for “well.”

wild-type ER = target: T3, wild-type ER (Homo sapiens, UniProt P03372); assay: Inhibition of E2 activity on wild-type ER, COS-7 cells with pHEGO and ERE luciferase reporter; assay type: cell-based; details: IC50 ± STDEV, pHEGO and pERETkLuc, E2 (3 nM) + 0.1 to 1000 nM compound
T3 construct: expressed in transfected cells; host or cells: COS-7
T3 sequence (P03372 1-595): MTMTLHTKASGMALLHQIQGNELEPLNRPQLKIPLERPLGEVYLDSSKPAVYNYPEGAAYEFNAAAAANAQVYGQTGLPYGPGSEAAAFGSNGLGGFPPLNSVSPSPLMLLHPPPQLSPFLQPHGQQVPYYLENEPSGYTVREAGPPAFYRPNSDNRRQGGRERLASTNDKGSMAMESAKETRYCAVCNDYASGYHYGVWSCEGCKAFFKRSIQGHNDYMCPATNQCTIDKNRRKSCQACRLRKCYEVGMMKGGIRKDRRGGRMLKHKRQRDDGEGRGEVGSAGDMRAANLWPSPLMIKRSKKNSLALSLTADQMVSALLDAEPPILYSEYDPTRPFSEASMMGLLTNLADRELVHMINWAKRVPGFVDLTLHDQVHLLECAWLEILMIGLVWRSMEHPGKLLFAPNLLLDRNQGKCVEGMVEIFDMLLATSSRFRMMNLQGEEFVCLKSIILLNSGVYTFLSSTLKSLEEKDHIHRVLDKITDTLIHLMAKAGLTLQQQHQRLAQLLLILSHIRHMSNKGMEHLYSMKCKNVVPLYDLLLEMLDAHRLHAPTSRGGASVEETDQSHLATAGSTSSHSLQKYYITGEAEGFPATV
Protocol: For transfection, 0.5 microgram of pERE2tkluc reporter plasmid, 20 ng of pHEGO, and 0.5 microgram of pCIneo inert carrier DNA were combined with 60 microliter serum-free DMEM and 5 microliter Qiagen Superfect transfection reagent, vortexed for 10s, and set at room temperature for 10 min. Each sample was diluted with 350 microliters of steroid-free media, mixed, and added to each well. Following 2 hr 30 min incubation at 37° C., cells were washed once with Dulbecco's phosphate buffered saline (DPBS), and refed with steroid-free media. […] Approximately 24 hr after treatment, cells were washed once with DPBS, then 200 microliter of reporter lysis buffer was added per well and frozen at −80° C. Cells were thawed at room temperature on an orbital shaker for 1 hr 30 min. A 10 microliter aliquot of lysate was transferred to 96 well opaque plates, and relative luciferase units (RLU) determined on a luminometer using the appropriate firefly luciferase substrate.
Note that the nonspecific activity is a noncompetable element in the assay system.
In order to dissolve them completely, all the solutions were warmed in 55° C. or boiled water bath for 10 to 20 min before use. The DMSO in cell culture medium was maintained to 0.01% for all the drug concentration tested as well as the vehicle control.

Av3-H524G = target: T4, Av3-H524G (Homo sapiens, UniProt P03372, H524G); assay: Transactivation on adenoviral (Av3)-delivered ER variant, luciferase in HeLa cells; assay type: cell-based; details: 100 nM test compound, 24 hrs (FIG. 5)
T4 construct: fragment B=ER amino acids 258-554; expressed in transfected cells; host or cells: HeLa cells transduced with Av3 or gutless adenoviral vector
T4 sequence (P03372 258-554 H524G): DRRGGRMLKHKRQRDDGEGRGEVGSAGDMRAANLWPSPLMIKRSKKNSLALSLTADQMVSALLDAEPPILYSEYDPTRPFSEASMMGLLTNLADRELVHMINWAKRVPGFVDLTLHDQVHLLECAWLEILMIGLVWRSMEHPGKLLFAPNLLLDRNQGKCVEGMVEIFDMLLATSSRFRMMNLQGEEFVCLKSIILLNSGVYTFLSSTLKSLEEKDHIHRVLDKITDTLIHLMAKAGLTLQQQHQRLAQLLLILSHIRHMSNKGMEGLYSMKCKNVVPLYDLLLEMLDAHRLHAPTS
From the text: Xu et al., Molecular Therapy, 3:262-273, 2000.

[2] = target: T5, 524G transcription factor (Homo sapiens, UniProt P03372, H524G); assay: In vitro inducible luciferase expression with gutless adenoviral transcription factor vector in Hela cells; assay type: cell-based
T5 construct: fragment B=ER amino acids 258-554; expressed in transfected cells; host or cells: HeLa cells transduced with Av3 or gutless adenoviral vector
T5 sequence (P03372 258-554 H524G): T4 sequence (P03372 258-554 H524G)

Molecule | % Gated Cells [1] [%] | degree of induction of H524G as compared to estrogen (ER-LBD H524G; 10 nM) | fold induction at 0.01 µM (ER-LBD H524G; 10 nM ligand, H524G (FIG. 6)) | fold induction at 10 nM (ER-LBD H524G; 10 nM ligand, H524G (FIG. 6)) [fold] | EC50 (ER-LBD H524G; Table 3, read-out: EC50 ± STDEV) [nM] | fold induction at 0.01 µM (H524A mutant) | IC50 (wild-type ER) [nM] | luciferase activity over the basal level (Av3-H524G) [times] | Fold Induction ([2]; 100 nM ligand vs without ligand) [fold] | Luciferase Expression Levels (Relative Light Units) ([2]; (+) induced with 100 nM ligand, mean +/− standard error (n = 4))
4-hydroxytamoxifen [4-OHT] | 0.36 |  |  |  |  |  |  |  |  | 
C/C(=C(/c1ccc(O)cc1)c1ccc(OCCN(C)C)cc1)c1ccc(N2CCOCC2)cc1 [LBF580, 4-((1E)-1-{4-[2-(dimethylamino)ethoxy]phenyl}-2-(4-morpholin-4-ylphenyl)prop-1-enyl)phenol] |  | nine | 138 | 140 | ≤ 25 | 4 | 253 | 16 | 8 | 285695 +/− 2331 Relative Light Units
